Consider 5 molecules from paper PMC8722715 (Frontiers in Cell and Developmental Biology, 2021).

Some results are limits rather than exact numbers.

One test deals with T1, hNaV1.7 channel (Homo sapiens, UniProt Q15858).
T1 construct: expressed in transfected cells
As to the kind of experiment: Automated patch-clamp block of hNaV1.7 peak Na+ current in CHO cells. In kind it is cell-based. The note with it: for IC50: CHO cells stably expressing hNaV1.7, SyncroPatch 384 PE whole-cell, holding -100 mV, -10 mV test pulse 50 ms every 5 s, room temperature 18-22°C, 0.3% BSA, steady state or end of 15-min application, mean, S.E.M. and n cells; for hNaV1.7 IC50 versus WT: ratio of analogue mean IC50 to HwTx-IV WT mean IC50 on hNaV1.7; for hNaV1.7/hNaV1.6 selectivity ratio: inverse ratio of the mean IC50 values on hNaV1.7 (CHO) and hNaV1.6 (HEK-293) of Table 1. On the procedure: (§1) CHO cells stably expressing the hNaV1.7 channel subtype were cultured in Dulbecco’s Modified Eagle’s Medium F-12 (DMEM/F12) supplemented with 10% fetal bovine serum, 2 mM glutamine, 200 μg/ml hygromycine B, 10 U/ml penicillin and 10 μg/ml streptomycin (Gibco, Grand Island, NY). HEK-293 cells stably expressing the hNaV1.6 channel subtype were cultured in Dulbecco’s Modified Eagle’s Medium (DMEM) supplemented with 10% fetal calf serum, 1 mM pyruvic acid, 4.5 g/L glucose, 2 mM glutamine, 800 μg/ml G418, 10 U/ml penicillin and 10 μg/ml streptomycin (Gibco, Grand Island, NY). All cell lines were incubated at 37°C in a 5% CO2 atmosphere. For electrophysiological recordings, cells were detached with trypsin, and floating single cells were diluted (∼300,000 cells/ml) in an extracellular solution containing (in mM): 140 NaCl, 4 KCl, 2 CaCl2, 1 MgCl2, 5 glucose and 10 HEPES (pH 7.4, osmolarity 298 mOsm), that was used throughout the experiments.
HwTx-IV analogues were investigated on CHO cells expressing hNav1.7 channel and HEK-293 cells expressing hNaV1.6 channel using the automated patch-clamp system from Nanion (SyncroPatch 384 PE; München, Germany). Chips with single-hole and high-resistance (∼6–7 MΩ) were used for both cell lines. Voltage pulses and whole-cell recordings were achieved using the PatchControl384 v1.5.2 software (Nanion) and the Biomek v1.0 interface (Beckman Coulter). Prior to recordings, dissociated cells were shaken at 200 RPM in a cell hotel reservoir at 10°C. After cell catching, sealing, whole-cell formation, liquid application, recording, and data acquisition were all performed sequentially and automatically. The intracellular solution contained (in mM): 110 CsF, 10 CsCl, 10 NaCl, 1 MgCl2, 1 CaCl2, 10 EGTA and 10 HEPES (pH 7.2, osmolarity 280 mOsm), and the extracellular solution was as described above. Whole-cell experiments were done at −100 mV holding potential and at room temperature (18–22°C), while currents triggered at either −10 or 0 mV test potential were sampled at 20 kHz. Stimulation frequency was set at 0.2 Hz. Each HwTx-IV analogue was prepared at various concentrations in the extracellular solution, itself supplemented with 0.3% of bovine serum albumin (BSA), also added in the control solution. […] Compound solutions were diluted 3 times in the patch-clamp recording well by adding 30–60 μl external solution, to reach the final reported concentration and the test volume of 90 μl. For establishing dose-response curves, the compounds were tested at a test potential of either −10 or 0 mV for 50 ms with a pulse every 5 s. Percentages of current inhibition were measured at steady-state of blockage or at the end of a 15-min application time.

Another test deals with T2, hNaV1.6 channel (Homo sapiens, UniProt Q9UQD0).
T2 construct: expressed in transfected cells
As to the kind of experiment: Automated patch-clamp block of hNaV1.6 peak Na+ current in HEK-293 cells. Particulars: for IC50: HEK-293 cells stably expressing hNaV1.6, SyncroPatch 384 PE whole-cell, holding -100 mV, 0 mV test pulse 50 ms every 5 s, room temperature 18-22°C, 0.3% BSA, steady state or end of 15-min application, mean, S.E.M. and n cells; for hNaV1.6 IC50 versus WT: ratio of analogue mean IC50 to HwTx-IV WT mean IC50 on hNaV1.6. It counts as cell-based. On the procedure: as §1
HwTx-IV analogues were investigated on CHO cells expressing hNav1.7 channel and HEK-293 cells expressing hNaV1.6 channel using the automated patch-clamp system from Nanion (SyncroPatch 384 PE; München, Germany). Chips with single-hole and high-resistance (∼6–7 MΩ) were used for both cell lines. Voltage pulses and whole-cell recordings were achieved using the PatchControl384 v1.5.2 software (Nanion) and the Biomek v1.0 interface (Beckman Coulter). Prior to recordings, dissociated cells were shaken at 200 RPM in a cell hotel reservoir at 10°C. After cell catching, sealing, whole-cell formation, liquid application, recording, and data acquisition were all performed sequentially and automatically. The intracellular solution contained (in mM): 110 CsF, 10 CsCl, 10 NaCl, 1 MgCl2, 1 CaCl2, 10 EGTA and 10 HEPES (pH 7.2, osmolarity 280 mOsm), and the extracellular solution was as described above. Whole-cell experiments were done at −100 mV holding potential and at room temperature (18–22°C), while currents triggered at either −10 or 0 mV test potential were sampled at 20 kHz. Stimulation frequency was set at 0.2 Hz. Each HwTx-IV analogue was prepared at various concentrations in the extracellular solution, itself supplemented with 0.3% of bovine serum albumin (BSA), also added in the control solution. The peptides were distributed in 384-well microplates according to the number of compounds to be tested (generally four), the concentration range defined from the IC50 of wild-type HwTx-IV, and the number of cells desired for each experimental condition. Compound solutions were diluted 3 times in the patch-clamp recording well by adding 30–60 μl external solution, to reach the final reported concentration and the test volume of 90 μl. For establishing dose-response curves, the compounds were tested at a test potential of either −10 or 0 mV for 50 ms with a pulse every 5 s. Percentages of current inhibition were measured at steady-state of blockage or at the end of a 15-min application time.
(In general: In patch-clamp work, channel activity is measured electrically.)

By IC50 is commonly meant the concentration that gives 50% inhibition. Low readings indicate inhibition by little substance, high ones a need for much substance.

T1 sequence (Q15858 whole entry): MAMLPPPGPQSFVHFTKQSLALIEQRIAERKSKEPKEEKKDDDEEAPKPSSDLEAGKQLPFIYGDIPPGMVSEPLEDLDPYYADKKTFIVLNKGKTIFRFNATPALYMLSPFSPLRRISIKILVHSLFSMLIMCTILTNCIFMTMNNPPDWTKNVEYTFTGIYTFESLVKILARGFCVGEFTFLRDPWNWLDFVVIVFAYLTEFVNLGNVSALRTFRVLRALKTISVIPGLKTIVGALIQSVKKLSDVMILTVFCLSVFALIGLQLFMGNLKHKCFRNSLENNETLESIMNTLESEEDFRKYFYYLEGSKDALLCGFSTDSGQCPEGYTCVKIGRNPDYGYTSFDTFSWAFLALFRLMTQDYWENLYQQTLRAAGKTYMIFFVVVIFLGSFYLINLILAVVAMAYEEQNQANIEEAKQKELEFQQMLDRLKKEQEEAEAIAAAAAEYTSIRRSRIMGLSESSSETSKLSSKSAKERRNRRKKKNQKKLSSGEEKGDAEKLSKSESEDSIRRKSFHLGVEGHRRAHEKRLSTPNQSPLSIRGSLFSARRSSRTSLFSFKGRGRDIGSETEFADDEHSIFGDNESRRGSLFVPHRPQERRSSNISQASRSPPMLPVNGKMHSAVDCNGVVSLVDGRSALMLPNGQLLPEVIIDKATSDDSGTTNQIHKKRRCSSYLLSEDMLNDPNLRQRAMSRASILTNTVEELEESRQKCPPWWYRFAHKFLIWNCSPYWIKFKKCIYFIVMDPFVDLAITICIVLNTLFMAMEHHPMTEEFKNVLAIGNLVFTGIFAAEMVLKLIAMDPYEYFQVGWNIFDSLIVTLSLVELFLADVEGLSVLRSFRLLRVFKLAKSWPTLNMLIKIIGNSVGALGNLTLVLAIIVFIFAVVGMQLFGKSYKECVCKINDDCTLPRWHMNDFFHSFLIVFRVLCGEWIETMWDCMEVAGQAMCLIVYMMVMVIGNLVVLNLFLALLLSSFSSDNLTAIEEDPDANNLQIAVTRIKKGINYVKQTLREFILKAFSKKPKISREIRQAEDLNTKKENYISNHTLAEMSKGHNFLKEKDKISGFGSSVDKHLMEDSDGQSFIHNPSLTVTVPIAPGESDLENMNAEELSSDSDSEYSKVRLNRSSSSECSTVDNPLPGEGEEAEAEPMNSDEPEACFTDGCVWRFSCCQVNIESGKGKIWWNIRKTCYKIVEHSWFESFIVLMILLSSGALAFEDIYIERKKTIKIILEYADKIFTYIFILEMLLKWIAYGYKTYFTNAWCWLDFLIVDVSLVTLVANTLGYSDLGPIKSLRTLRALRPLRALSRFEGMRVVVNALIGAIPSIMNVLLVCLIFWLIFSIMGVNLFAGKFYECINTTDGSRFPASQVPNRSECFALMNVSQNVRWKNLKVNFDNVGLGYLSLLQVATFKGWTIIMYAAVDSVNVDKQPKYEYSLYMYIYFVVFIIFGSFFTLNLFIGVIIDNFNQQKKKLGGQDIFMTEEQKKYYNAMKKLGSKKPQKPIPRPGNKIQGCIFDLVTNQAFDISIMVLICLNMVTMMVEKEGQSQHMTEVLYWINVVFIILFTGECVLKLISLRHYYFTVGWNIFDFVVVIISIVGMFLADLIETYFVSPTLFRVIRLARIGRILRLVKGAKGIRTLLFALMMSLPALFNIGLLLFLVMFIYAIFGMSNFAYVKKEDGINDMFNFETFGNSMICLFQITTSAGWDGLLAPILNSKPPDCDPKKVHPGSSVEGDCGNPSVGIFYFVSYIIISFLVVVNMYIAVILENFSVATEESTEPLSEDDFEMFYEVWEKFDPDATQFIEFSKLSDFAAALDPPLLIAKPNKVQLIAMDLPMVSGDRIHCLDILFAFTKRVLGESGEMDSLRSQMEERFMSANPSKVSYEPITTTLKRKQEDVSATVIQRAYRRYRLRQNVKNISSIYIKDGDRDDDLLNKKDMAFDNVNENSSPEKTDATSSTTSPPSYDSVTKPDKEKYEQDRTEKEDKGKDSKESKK
T2 sequence (Q9UQD0 whole entry): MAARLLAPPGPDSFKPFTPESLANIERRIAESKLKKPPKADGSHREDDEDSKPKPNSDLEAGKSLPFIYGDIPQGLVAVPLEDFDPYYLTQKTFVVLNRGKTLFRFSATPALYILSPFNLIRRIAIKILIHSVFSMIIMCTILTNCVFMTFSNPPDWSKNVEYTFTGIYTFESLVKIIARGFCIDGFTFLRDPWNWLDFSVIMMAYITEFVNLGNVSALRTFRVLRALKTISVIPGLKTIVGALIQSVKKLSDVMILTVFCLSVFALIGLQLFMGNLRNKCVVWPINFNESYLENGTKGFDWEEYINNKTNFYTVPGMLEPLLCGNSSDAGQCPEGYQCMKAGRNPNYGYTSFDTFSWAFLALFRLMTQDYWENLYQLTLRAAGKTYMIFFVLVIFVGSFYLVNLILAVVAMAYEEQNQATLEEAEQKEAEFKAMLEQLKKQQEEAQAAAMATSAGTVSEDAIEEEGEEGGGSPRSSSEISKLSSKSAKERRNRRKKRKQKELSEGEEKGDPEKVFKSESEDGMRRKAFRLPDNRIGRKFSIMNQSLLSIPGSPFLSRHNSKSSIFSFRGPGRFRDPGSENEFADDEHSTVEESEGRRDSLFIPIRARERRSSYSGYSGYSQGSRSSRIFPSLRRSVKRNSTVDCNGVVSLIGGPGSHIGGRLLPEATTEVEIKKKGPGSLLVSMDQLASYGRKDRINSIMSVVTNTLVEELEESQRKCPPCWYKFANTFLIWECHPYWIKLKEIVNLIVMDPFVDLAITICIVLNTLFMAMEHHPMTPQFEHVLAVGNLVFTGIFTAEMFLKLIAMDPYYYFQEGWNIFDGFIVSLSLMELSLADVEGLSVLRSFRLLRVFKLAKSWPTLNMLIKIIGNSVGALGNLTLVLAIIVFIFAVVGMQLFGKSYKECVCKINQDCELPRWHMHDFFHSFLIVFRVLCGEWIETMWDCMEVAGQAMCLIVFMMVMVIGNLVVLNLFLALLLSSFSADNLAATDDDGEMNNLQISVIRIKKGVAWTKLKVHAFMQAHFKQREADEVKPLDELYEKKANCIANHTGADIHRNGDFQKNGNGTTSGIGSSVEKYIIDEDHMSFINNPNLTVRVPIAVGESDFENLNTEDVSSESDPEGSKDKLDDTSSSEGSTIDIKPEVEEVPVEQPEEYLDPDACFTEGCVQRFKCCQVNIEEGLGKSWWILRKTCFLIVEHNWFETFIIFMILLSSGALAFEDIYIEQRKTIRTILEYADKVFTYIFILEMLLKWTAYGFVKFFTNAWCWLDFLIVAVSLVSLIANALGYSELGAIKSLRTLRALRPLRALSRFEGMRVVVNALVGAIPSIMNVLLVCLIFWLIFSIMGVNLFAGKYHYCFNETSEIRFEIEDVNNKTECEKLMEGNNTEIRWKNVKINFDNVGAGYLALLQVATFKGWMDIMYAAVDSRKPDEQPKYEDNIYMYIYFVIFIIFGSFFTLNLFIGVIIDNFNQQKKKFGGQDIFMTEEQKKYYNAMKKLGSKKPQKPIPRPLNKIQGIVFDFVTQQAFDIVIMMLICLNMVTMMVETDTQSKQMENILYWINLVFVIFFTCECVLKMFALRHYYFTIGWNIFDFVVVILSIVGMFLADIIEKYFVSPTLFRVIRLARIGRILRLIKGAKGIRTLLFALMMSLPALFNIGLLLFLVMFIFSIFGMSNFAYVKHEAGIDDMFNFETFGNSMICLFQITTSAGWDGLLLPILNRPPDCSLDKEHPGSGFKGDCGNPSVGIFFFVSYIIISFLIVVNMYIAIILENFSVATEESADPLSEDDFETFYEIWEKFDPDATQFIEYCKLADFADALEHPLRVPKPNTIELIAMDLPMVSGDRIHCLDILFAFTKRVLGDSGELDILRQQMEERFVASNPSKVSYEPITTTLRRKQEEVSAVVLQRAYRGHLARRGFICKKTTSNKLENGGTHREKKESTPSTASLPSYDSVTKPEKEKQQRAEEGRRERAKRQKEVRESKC

Take `CC[C@H](C)[C@H](NC(=O)[C@H](CCC(N)=O)NC(=O)[C@H](Cc1ccc(O)cc1)NC(=O)[C@H](CC(N)=O)NC(=O)[C@@H]1CSSC[C@@H]2NC(=O)[C@H](CCC(N)=O)NC(=O)[C@H](CC(=O)O)NC(=O)[C@H](CC(N)=O)NC(=O)[C@H](CO)NC(=O)[C@@H]3CCCN3C(=O)[C@H](CC(N)=O)NC(=O)[C@@H]3CSSC[C@H](NC(=O)[C@H](C(C)C)NC(=O)[C@H](CC(C)C)NC(=O)[C@H](CCCCN)NC(=O)[C@H](CO)NC(=O)[C@H](CO)NC(=O)[C@H](CCCCN)NC(=O)[C@H](CSSC[C@H](NC(=O)[C@@H](N)CCC(=O)O)C(=O)N[C@@H](CC(C)C)C(=O)N[C@@H](CCCNC(=N)N)C(=O)N[C@@H]([C@@H](C)CC)C(=O)N[C@@H](Cc4ccccc4)C(=O)N[C@@H](CCCCN)C(=O)N[C@@H](C)C(=O)N3)NC2=O)C(=O)N[C@@H](CO)C(=O)N[C@@H](CCCNC(=N)N)C(=O)N[C@@H](CCCCN)C(=O)N[C@@H]([C@@H](C)O)C(=O)N[C@@H](CCCNC(=N)N)C(=O)N[C@@H](Cc2c[nH]c3ccccc23)C(=O)N1)C(N)=O` [HwTx-IV E^4R/K^32N]: at hNaV1.7 channel, the IC50 is over 1000 nM and the “hNaV1.7 IC50 versus WT” value is over 101. For the same molecule, on hNaV1.6 channel, the half-maximal inhibitory concentration (IC50) is over 333 nM and the “hNaV1.6 IC50 versus WT” value is over 1.5.

For the molecule `CC[C@H](C)[C@H](NC(=O)[C@H](CCC(N)=O)NC(=O)[C@H](Cc1ccc(O)cc1)NC(=O)[C@H](CCCCN)NC(=O)[C@@H]1CSSC[C@@H]2NC(=O)[C@H](CCC(N)=O)NC(=O)[C@H](CC(=O)O)NC(=O)[C@H](CC(N)=O)NC(=O)[C@H](CO)NC(=O)[C@@H]3CCCN3C(=O)[C@H](CC(N)=O)NC(=O)[C@@H]3CSSC[C@H](NC(=O)[C@H](C(C)C)NC(=O)[C@H](CC(C)C)NC(=O)[C@H](CCCCN)NC(=O)[C@H](CO)NC(=O)[C@H](CO)NC(=O)[C@H](CCCCN)NC(=O)[C@H](CSSC[C@H](NC(=O)[C@@H](N)CCC(=O)O)C(=O)N[C@@H](CC(C)C)C(=O)NCC(=O)N[C@@H]([C@@H](C)CC)C(=O)N[C@@H](Cc4ccccc4)C(=O)N[C@@H](CCCCN)C(=O)N[C@@H](C)C(=O)N3)NC2=O)C(=O)N[C@@H](CO)C(=O)N[C@@H](CCCNC(=N)N)C(=O)N[C@@H](CCCCN)C(=O)N[C@@H]([C@@H](C)O)C(=O)N[C@@H](CCCNC(=N)N)C(=O)N[C@@H](Cc2c[nH]c3ccccc23)C(=O)N1)C(=O)O` [HwTx-IV E^4G/CterCOOH], at hNaV1.7 channel, the IC50 is 14.9 nM and the “hNaV1.7 IC50 versus WT” value was found to be 1.51. Besides, on hNaV1.6 channel, inhibition was half-maximal at 55.1 nM (IC50) and the “hNaV1.6 IC50 versus WT” value came to 0.24.

With `CC[C@H](C)[C@H](NC(=O)[C@H](CCC(N)=O)NC(=O)[C@H](Cc1ccc(O)cc1)NC(=O)[C@H](CCCCN)NC(=O)[C@@H]1CSSC[C@@H]2NC(=O)[C@H](CCC(N)=O)NC(=O)[C@H](CC(=O)O)NC(=O)[C@H](CC(N)=O)NC(=O)[C@H](CO)NC(=O)[C@@H]3CCCN3C(=O)[C@H](CC(N)=O)NC(=O)[C@@H]3CSSC[C@H](NC(=O)[C@H](C(C)C)NC(=O)[C@H](CC(C)C)NC(=O)[C@H](CCCCN)NC(=O)[C@H](CO)NC(=O)[C@H](CO)NC(=O)[C@H](CCCCN)NC(=O)[C@H](CSSC[C@H](NC(=O)CN)C(=O)N[C@@H](CC(C)C)C(=O)NCC(=O)N[C@@H]([C@@H](C)CC)C(=O)N[C@@H](Cc4ccccc4)C(=O)N[C@@H](CCCCN)C(=O)N[C@@H](C)C(=O)N3)NC2=O)C(=O)N[C@@H](CO)C(=O)N[C@@H](CCCNC(=N)N)C(=O)N[C@@H](CCCCN)C(=O)N[C@@H]([C@@H](C)O)C(=O)N[C@@H](CCCNC(=N)N)C(=O)N[C@@H](Cc2c[nH]c3ccccc23)C(=O)N1)C(N)=O` [HwTx-IV E^1G/E^4G], at hNaV1.7 channel, inhibition was half-maximal at 2 nM (IC50), the hNaV1.7/hNaV1.6 selectivity ratio entry is “less than 2” and the “hNaV1.7 IC50 versus WT” value is recorded as 0.20. Besides, on hNaV1.6 channel, half-maximal inhibition (IC50) required 3.7 nM and the “hNaV1.6 IC50 versus WT” value stood at 0.02.

`CC[C@H](C)[C@H](NC(=O)[C@H](CCC(N)=O)NC(=O)[C@H](Cc1ccc(O)cc1)NC(=O)[C@H](CCCCN)NC(=O)[C@@H]1CSSC[C@@H]2NC(=O)[C@H](CCC(N)=O)NC(=O)[C@H](CC(=O)O)NC(=O)[C@H](CC(N)=O)NC(=O)[C@H](CO)NC(=O)[C@@H]3CCCN3C(=O)[C@H](CC(N)=O)NC(=O)[C@@H]3CSSC[C@H](NC(=O)[C@H](C(C)C)NC(=O)[C@H](CC(C)C)NC(=O)[C@H](CCCCN)NC(=O)[C@H](CO)NC(=O)[C@H](CO)NC(=O)[C@H](CCCCN)NC(=O)[C@H](CSSC[C@H](NC(=O)[C@@H](N)CCC(=O)O)C(=O)N[C@@H](CC(C)C)C(=O)N[C@@H](CCC(=O)O)C(=O)N[C@@H]([C@@H](C)CC)C(=O)N[C@@H](Cc4ccccc4)C(=O)N[C@@H](CCCCN)C(=O)N[C@@H](C)C(=O)N3)NC2=O)C(=O)N[C@@H](CO)C(=O)N[C@@H](CCCNC(=N)N)C(=O)N[C@@H](CCCCN)C(=O)N[C@@H]([C@@H](C)O)C(=O)N[C@@H](CCCNC(=N)N)C(=O)N[C@@H](Cc2c[nH]c3ccccc23)C(=O)N1)C(=O)N[C@@H](CCCCN)C(=O)O` [HwTx-IV K^36/CterCOOH]: at hNaV1.7 channel, it took 29 nM to reach half-maximal inhibition (IC50), the hNaV1.7/hNaV1.6 selectivity ratio entry is listed as “above 46” and the “hNaV1.7 IC50 versus WT” value came to 2.93. On hNaV1.6 channel, half-maximal inhibition (IC50) required 1330 nM and the “hNaV1.6 IC50 versus WT” value worked out at 5.89.

Regarding `CC[C@H](C)[C@H](NC(=O)[C@H](CCC(N)=O)NC(=O)[C@H](Cc1ccc(O)cc1)NC(=O)[C@H](CC(N)=O)NC(=O)[C@@H]1CSSC[C@@H]2NC(=O)[C@H](CCC(N)=O)NC(=O)[C@H](CC(=O)O)NC(=O)[C@H](CC(N)=O)NC(=O)[C@H](CO)NC(=O)[C@@H]3CCCN3C(=O)[C@H](CC(N)=O)NC(=O)[C@@H]3CSSC[C@H](NC(=O)[C@H](C(C)C)NC(=O)[C@H](CC(C)C)NC(=O)[C@H](CCCCN)NC(=O)[C@H](CO)NC(=O)[C@H](CO)NC(=O)[C@H](CCCCN)NC(=O)[C@H](CSSC[C@H](NC(=O)[C@@H](N)CCC(=O)O)C(=O)N[C@@H](CC(C)C)C(=O)N[C@@H](CCC(=O)O)C(=O)N[C@@H]([C@@H](C)CC)C(=O)N[C@@H](Cc4ccccc4)C(=O)N[C@@H](CCCCN)C(=O)N[C@@H](C)C(=O)N3)NC2=O)C(=O)N[C@@H](CO)C(=O)N[C@@H](CCCNC(=N)N)C(=O)N[C@@H](CCCCN)C(=O)N[C@@H]([C@@H](C)O)C(=O)N[C@@H](CCCNC(=N)N)C(=O)N[C@@H](Cc2c[nH]c3ccccc23)C(=O)N1)C(N)=O` [HwTx-IV K^32N], on hNaV1.7 channel, the IC50 amounted to 5750 nM and the “hNaV1.7 IC50 versus WT” value came out at 581. Besides, at hNaV1.6 channel, the IC50 is over 1000 nM and the “hNaV1.6 IC50 versus WT” value was over 4.4.
